Measurements published in publication PMC8933379, “Evaluation of the absolute oral bioavailability of the anaplastic lymphoma kinase/c-ROS oncogene 1 kinase inhibitor lorlatinib in healthy participants” (Cancer Chemotherapy and Pharmacology, 2021).
Converted amounts (≈) assume the structure as drawn. “Also recorded” adds a separate entry of the source. Where two headings read alike, the source gives them in different places.

Assays:
[1] = set-up: method as in PMID 24819116; conditions: in vitro; cited from earlier work
[2] = set-up: method as in PMID 33937953; conditions: co-administered with modafinil; cited from earlier work
[3] = Solubility in aqueous media; type: physicochemical
[4] = set-up: method as in earlier work; conditions: cited from earlier work
[5] = dogs; animal studies, no reference given; cited from earlier work
[6] = cited from earlier work; for Mean half-life: previous drug interaction studies
[7] = test system: human blood; conditions: planned IV dose formulation, human blood in vitro; earlier toxicology studies, no reference given; cited from earlier work
[8] = Safety evaluation (adverse events) in the crossover study
Experimental: Safety assessments were performed at screening, during the study, and at study completion, clinic discharge, or early termination. Safety assessments included physical examinations, 12‐lead ECGs, vital signs, and clinical laboratory evaluations. All adverse events (AEs) and concomitant treatments were monitored and recorded throughout the study. AEs were reported using NCI CTCAE terminology.

[9] = planned IV dose formulation, rabbits; earlier toxicology studies, no reference given; cited from earlier work
[10] = cited from earlier work; for Mean half-life: previous drug interaction studies; remark: listed apart in the source

C[C@H]1Oc2cc(cnc2N)-c2c(nn(C)c2C#N)CN(C)C(=O)c2ccc(F)cc21 [Lorlatinib, (10R)-7-amino-12-fluoro-2,10,16-trimethyl-15-oxo-10,15,16,17-tetrahydro-2H-8,4-(metheno)pyrazolo[4,3-h][2,5,11]-benzoxadiazacyclotetradecine-3-carbonitrile]
Permeability [1]: highly permeable
AUCinf reduction [2]: 23%
solubility ([3]; pH 2.55): 32.4 mg/mL (≈ 79.7 mM)
solubility ([3]; pH 8.02): 0.17 mg/mL (≈ 0.418 mM)
Oral apparent clearance (CL/F), mean (CV%) ([4]; after a 100 mg single oral dose): 11 L/h
Oral apparent clearance (CL/F), mean (CV%) ([4]; at steady-state): 18 L/h
Plasma terminal half-life (t½), mean (CV%) [4]: approximately 24 h
Absolute bioavailability [5]: ~97%
AUCinf increase ([6]; co-administered with itraconazole): 42%
Mean half-life ([6]; lorlatinib alone, itraconazole study): 23 h
Mean half-life ([6]; with the inhibitor itraconazole): 30 h
Potential to cause hemolysis [7]: did not indicate any potential to cause hemolysis
Tolerability ([8]; 50 mg IV dose and 100 mg single oral dose, healthy participants): generally well-tolerated
Number of TEAEs (treatment-emergent adverse events) ([8]; 50 mg IV, n = 11): 8
Number of TRAEs (treatment-related adverse events) ([8]; 50 mg IV, n = 11): 6
Number of participants who reported AEs ([8]; 50 mg IV, n = 11): 4
Participants with AEs: Abdominal discomfort, all causality ([8]; 50 mg IV, n = 11): 0
Participants with AEs: Contusion, TRAE ([8]; 50 mg IV, n = 11): 0
Participants with AEs: Contusion, all causality ([8]; 50 mg IV, n = 11): 1
Participants with AEs: Dizziness, TRAE ([8]; 50 mg IV, n = 11): 1 (1)
Participants with AEs: Dizziness, all causality ([8]; 50 mg IV, n = 11): 1 (1)
Participants with AEs: Dysuria, all causality ([8]; 50 mg IV, n = 11): 0
Participants with AEs: Eye disorders, all causality ([8]; 50 mg IV, n = 11): 0
Participants with AEs: Gastrointestinal disorders, all causality ([8]; 50 mg IV, n = 11): 0
Participants with AEs: General disorders and administration side conditions, all causality ([8]; 50 mg IV, n = 11): 0
Participants with AEs: Headache, TRAE ([8]; 50 mg IV, n = 11): 2 (2)
Participants with AEs: Headache, all causality ([8]; 50 mg IV, n = 11): 2 (2)
Participants with AEs: Injury, poisoning and procedural complications, TRAE ([8]; 50 mg IV, n = 11): 0
Participants with AEs: Injury, poisoning and procedural complications, all causality ([8]; 50 mg IV, n = 11): 1
Participants with AEs: Investigations, TRAE ([8]; 50 mg IV, n = 11): 1 (1)
Participants with AEs: Investigations, all causality ([8]; 50 mg IV, n = 11): 1 (1)
Participants with AEs: Mental impairment, all causality ([8]; 50 mg IV, n = 11): 0
Participants with AEs: Nausea, all causality ([8]; 50 mg IV, n = 11): 0
Participants with AEs: Nervous system disorders, TRAE ([8]; 50 mg IV, n = 11): 2 (2)
Participants with AEs: Nervous system disorders, all causality ([8]; 50 mg IV, n = 11): 2 (2)
Participants with AEs: Nervousness, TRAE ([8]; 50 mg IV, n = 11): 0
Participants with AEs: Nervousness, all causality ([8]; 50 mg IV, n = 11): 1
Participants with AEs: Paraesthesia, TRAE ([8]; 50 mg IV, n = 11): 1 (1)
Participants with AEs: Paraesthesia, all causality ([8]; 50 mg IV, n = 11): 1 (1)
Participants with AEs: Photophobia, all causality ([8]; 50 mg IV, n = 11): 0
Participants with AEs: Psychiatric disorders, TRAE ([8]; 50 mg IV, n = 11): 0
Participants with AEs: Psychiatric disorders, all causality ([8]; 50 mg IV, n = 11): 1
Participants with AEs: Renal and urinary disorders, all causality ([8]; 50 mg IV, n = 11): 0
Participants with AEs: Somnolence, all causality ([8]; 50 mg IV, n = 11): 0
Participants with AEs: Transaminase increased, TRAE ([8]; 50 mg IV, n = 11): 1 (1)
Participants with AEs: Transaminase increased, all causality ([8]; 50 mg IV, n = 11): 1 (1)
Participants with AEs: Visual field defect, TRAE ([8]; 50 mg IV, n = 11): 1 (1)
Participants with AEs: Visual field defect, all causality ([8]; 50 mg IV, n = 11): 1 (1)
Deaths, serious AEs, severe AEs, discontinuations or dose reductions due to AEs ([8]; 100 mg oral and 50 mg IV, 11 healthy participants): No deaths, serious adverse events (AEs), or severe AEs were reported; also recorded: No deaths, serious AEs, severe AEs, permanent discontinuations, temporary discontinuations, or dose reductions due to AEs were reported
Number of TEAEs (treatment-emergent adverse events) ([8]; 100 mg oral tablets, n = 11): 12
Number of TRAEs (treatment-related adverse events) ([8]; 100 mg oral tablets, n = 11): 9
Participants with AEs: Abdominal discomfort, TRAE ([8]; 100 mg oral tablets, n = 11): 0
Participants with AEs: Abdominal discomfort, all causality ([8]; 100 mg oral tablets, n = 11): 1
Participants with AEs: Contusion, all causality ([8]; 100 mg oral tablets, n = 11): 0
Participants with AEs: Dizziness, TRAE ([8]; 100 mg oral tablets, n = 11): 1 (1)
Participants with AEs: Dizziness, all causality ([8]; 100 mg oral tablets, n = 11): 1 (1)
Participants with AEs: Dysuria, TRAE ([8]; 100 mg oral tablets, n = 11): 1 (1)
Participants with AEs: Dysuria, all causality ([8]; 100 mg oral tablets, n = 11): 1 (1)
Participants with AEs: Eye disorders, TRAE ([8]; 100 mg oral tablets, n = 11): 1 (1)
Participants with AEs: Eye disorders, all causality ([8]; 100 mg oral tablets, n = 11): 1 (1)
Participants with AEs: Gastrointestinal disorders, TRAE ([8]; 100 mg oral tablets, n = 11): 0
Participants with AEs: Gastrointestinal disorders, all causality ([8]; 100 mg oral tablets, n = 11): 2
Participants with AEs: General disorders and administration side conditions, TRAE ([8]; 100 mg oral tablets, n = 11): 0
Participants with AEs: General disorders and administration side conditions, all causality ([8]; 100 mg oral tablets, n = 11): 1
Participants with AEs: Headache, TRAE ([8]; 100 mg oral tablets, n = 11): 2 (2)
Participants with AEs: Headache, all causality ([8]; 100 mg oral tablets, n = 11): 2 (2)
Participants with AEs: Injury, poisoning and procedural complications, all causality ([8]; 100 mg oral tablets, n = 11): 0
Participants with AEs: Investigations, TRAE ([8]; 100 mg oral tablets, n = 11): 1 (1)
Participants with AEs: Investigations, all causality ([8]; 100 mg oral tablets, n = 11): 1 (1)
Participants with AEs: Mental impairment, TRAE ([8]; 100 mg oral tablets, n = 11): 1 (1)
Participants with AEs: Mental impairment, all causality ([8]; 100 mg oral tablets, n = 11): 1 (1)
Participants with AEs: Nausea, TRAE ([8]; 100 mg oral tablets, n = 11): 0
Participants with AEs: Nausea, all causality ([8]; 100 mg oral tablets, n = 11): 1
Participants with AEs: Nervous system disorders, TRAE ([8]; 100 mg oral tablets, n = 11): 3 (3)
Participants with AEs: Nervous system disorders, all causality ([8]; 100 mg oral tablets, n = 11): 3 (3)
Participants with AEs: Nervousness, all causality ([8]; 100 mg oral tablets, n = 11): 0
Participants with AEs: Paraesthesia, TRAE ([8]; 100 mg oral tablets, n = 11): 1 (1)
Participants with AEs: Paraesthesia, all causality ([8]; 100 mg oral tablets, n = 11): 1 (1)
Participants with AEs: Photophobia, TRAE ([8]; 100 mg oral tablets, n = 11): 1 (1)
Participants with AEs: Photophobia, all causality ([8]; 100 mg oral tablets, n = 11): 1 (1)
Participants with AEs: Psychiatric disorders, all causality ([8]; 100 mg oral tablets, n = 11): 0
Participants with AEs: Renal and urinary disorders, TRAE ([8]; 100 mg oral tablets, n = 11): 1 (1)
Participants with AEs: Renal and urinary disorders, all causality ([8]; 100 mg oral tablets, n = 11): 1 (1)
Participants with AEs: Somnolence, TRAE ([8]; 100 mg oral tablets, n = 11): 1 (1)
Participants with AEs: Somnolence, all causality ([8]; 100 mg oral tablets, n = 11): 1 (1)
Participants with AEs: Transaminase increased, TRAE ([8]; 100 mg oral tablets, n = 11): 1 (1)
Participants with AEs: Transaminase increased, all causality ([8]; 100 mg oral tablets, n = 11): 1 (1)
Participants with AEs: Visual field defect, all causality ([8]; 100 mg oral tablets, n = 11): 0
Number of participants who reported AEs ([8]; 100 mg oral, n = 11): 4
Local vascular tissue irritation [9]: did not indicate any local vascular tissue irritation
AUCinf reduction ([10]; co-administered with rifampicin): 85%
Mean half-life ([10]; lorlatinib alone, rifampin study): 29 h
Mean half-life ([10]; with the inducer rifampin): 18 h
